Measurements reported in US4355179A, “Radioactive nuclide labeled propiophenone compounds” (Burroughs Wellcome Co., priority 1980, dated 1982).

How the values were obtained:
[1] = tested on: antisera raised by a bupropion variant-carrier material conjugate; assay: Competition with radiolabeled bupropion or radiolabeled competitor for binding to antisera; conditions: against radiolabeled bupropion or radiolabeled competitor
[2] = tested on: anti-compound 1 sera; assay: RIA of bupropion using 125I-labeled competitor with anti-compound 1 sera; type: binding; conditions: compound 6 with anti-compound 1 sera, compared with the other RIA's
Experimental: Samples of six standard solutions of bupropion in blank plasma having concentrations of 0.39 to 50 ng/ml) are pipetted (0.1 ml each) in duplicate into 12×75 mm plastic tubes. Duplicate non-specific binding (no antibody) and maximum binding tubes (no unlabeled bupropion) receive 0.1 ml blank plasma. Spiked plasma controls at several concentrations of (e.g., 1.0, 10.0, and 100 ng/ml) and plasma samples for assay (diluted into the standard range with blank plasma if necessary) are assayed in duplicate. After being placed in an ice bath, all tubes receive (in order) 0.2 ml ^3 H bupropion (416 pg. containing approximately 10^4 cpm) and 0.7 ml anti-bupropion serum (raised to a ring-functionalized immunogen according to the present invention) (at pre-determined dilutions such that approximately 40% of the ^3 H bupropion added is bound), both in assay buffer (0.05 M phosphate-bufferedisotonic saline, containing 0.01 M EDTA and 0.1% gelatin, pH 7.0). […] The supernatants, containing antibody-bound ^3 H bupropion are carefully decanted into liquid scintillation cocktail for quantitation of ^3 H. After counts (minus average non-specific binding cpm) are expressed as percentages of average maximum binding cpm, bupropion concentrations in plasma samples and spiked controls are read from a standard curve (log concentration vs percent average maximum binding). […]

[3] = tested on: anti-compound 2 sera, anti-compound 3 sera; assay: RIA of bupropion using 125I-labeled competitors with anti-compound 2 sera and anti-compound 3 sera; type: binding; conditions: with anti-compound 2 or anti-compound 3 sera
Experimental: Samples of six standard solutions of bupropion in blank plasma having concentrations of 0.39 to 50 ng/ml) are pipetted (0.1 ml each) in duplicate into 12×75 mm plastic tubes. Duplicate non-specific binding (no antibody) and maximum binding tubes (no unlabeled bupropion) receive 0.1 ml blank plasma. Spiked plasma controls at several concentrations of (e.g., 1.0, 10.0, and 100 ng/ml) and plasma samples for assay (diluted into the standard range with blank plasma if necessary) are assayed in duplicate. After being placed in an ice bath, all tubes receive (in order) 0.2 ml ^3 H bupropion (416 pg. containing approximately 10^4 cpm) and 0.7 ml anti-bupropion serum (raised to a ring-functionalized immunogen according to the present invention) (at pre-determined dilutions such that approximately 40% of the ^3 H bupropion added is bound), both in assay buffer (0.05 M phosphate-bufferedisotonic saline, containing 0.01 M EDTA and 0.1% gelatin, pH 7.0). Non-specific binding tubes receive 0.7 ml assay buffer.) Following incubation either at 25° C. for 2 hours or overnight at 4° C., bound and free ^3 H bupropion are separated by incubation for 10 min at 0° C. with 0.5 ml ice-cold dextran-coated charcoal solution (0.25% dextran, 5 mg/ml charcoal, in assay buffer) followed by centrifugation for 10 minutes at 4° C. […] The supernatants, containing antibody-bound ^3 H bupropion are carefully decanted into liquid scintillation cocktail for quantitation of ^3 H. After counts (minus average non-specific binding cpm) are expressed as percentages of average maximum binding cpm, bupropion concentrations in plasma samples and spiked controls are read from a standard curve (log concentration vs percent average maximum binding).
RIA's have been run according to the method of Example X utilizing ^125 I labeled bupropion competitors of the present invention in conjunction with antisera obtained following immunization with immunogens of the present invention. […] Following the ethanol precipitation of antibody-bound ^125 I-bupropion competitor at equilibrium, ^125 I in the protein pellets was quantified.

Compound: CC(NC(C)(C)C)C(=O)c1cccc(Cl)c1 (racemic) [bupropion, (±)-2-tert-butylamino-3'-chloropropiophenone]
- competition for binding to antisera [1]: successfully compete

Compound: CC(NC(C)(C)C)C(=NOCC(=O)NCCc1ccc(O)c([125I])c1)c1cccc(Cl)c1 (stereo not drawn) [Compound 6, α-t-Butylamino-3-chloropropiophenone-carboxymethyloxime-^125 I-tyramine amide]
- RIA sensitivity [2]: least sensitive

Compound: CC(NC(C)(C)C)C(=O)c1ccc(OCC(=O)NCCc2ccc(O)c([125I])c2)c(Cl)c1 (stereo not drawn) [Compound 7, α-t-Butylamino-3-chloro-4-carbomethoxypropiophenone-^125 I-tyramine amide]
- RIA sensitivity relative to the compound 10 (3H bupropion) assay system [3]: approximately equal

Compound: CC(NC(C)(C)C)C(=O)c1ccc(CCCOC(=O)CCC(=O)NCCc2ccc(O)c([125I])c2)c(Cl)c1 (stereo not drawn) [Compound 8, α-t-butylamino-3-chloro-4-γ-hydroxypropylpropiophenonehemisuccinate-^125 I-tyramine amide]
- RIA sensitivity relative to the compound 10 (3H bupropion) assay system [3]: approximately equal

Compound: CC(NC(C)(C)C)C(=O)c1ccc(O)c([125I])c1 (stereo not drawn) [Compound 9, ^125 I-α-t-Butylamino-3-iodo-4-hydroxypropiophenone]
- RIA sensitivity relative to the compound 10 (3H bupropion) assay system [3]: approximately ten times more sensitive
